According to US12268683B2, “Compounds and methods for synergistic activation of M channels” (THE REGENTS OF THE UNIVERSITY OF CALIFORNIA, priority 2018, dated 2025):

Tests used:
KCNQ2-R213A/KCNQ3 = KCNQ2-R213A/KCNQ3 (Homo sapiens, UniProt O43525+O43526, R213A); test: TEVC of KCNQ2-R213A/KCNQ3 channels; assay type: cell-based
From the text: (§1) As previously described (12), we generated cRNA transcripts encoding human KCNA1, KCNE1, KCNE2, KCNE3, KCNQ1, KCNQ2, KCNQ3, KCNQ4 or KCNQ5 by in vitro transcription using the T7 polymerase mMessage mMachine kit (Thermo Fisher Scientific), after vector linearization, from cDNA sub-cloned into plasmids incorporating Xenopus laevis β-globin 5′ and 3′ UTRs flanking the coding region to enhance translation and cRNA stability. We quantified cRNA by spectrophotometry. We generated mutant KCNQ2 and KCNQ3 cDNAs by site-directed mutagenesis with a QuikChange kit (Stratagene, San Diego, Calif.) and prepared the cRNAs as above. We injected defolliculated stage V and VI Xenopus laevis oocytes (Ecocyte Bioscience, Austin, Tex. and Xenoocyte, Dexter, Mich., US) with KCNE and/or KCNQ cRNAs (5-20 ng). […]
(§2) We performed TEVC at room temperature using an OC-725C amplifier (Warner Instruments, Hamden, Conn.) and pClamp10 software (Molecular Devices, Sunnyvale, Calif.) 2-5 days after cRNA injection as described in the section above. […] We recorded currents in response to voltage pulses between −120 or −80 mV and +40 mV at 20 mV intervals from a holding potential of −80 mV, to yield current-voltage relationships, current magnitude, and for quantifying activation rate. We analyzed data using Clampfit (Molecular Devices) and Graphpad Prism software (GraphPad, San Diego, Calif., USA); values are stated as mean±SEM. […]

KCNQ1-R243A/KCNE1 = KCNQ1-R243A/KCNE1 (Homo sapiens, UniProt P51787, R243A); test: TEVC of R243A KCNQ1/KCNE1 channels; assay type: cell-based
From the text: as §1, §2

KCNQ1-R243A = KCNQ1-R243A (Homo sapiens, UniProt P51787, R243A); test: TEVC of R243A KCNQ1 channels; assay type: cell-based
From the text: as §1, §2

[1] = rats fed Mallotus philippensis extract; cited from earlier work

Row | Compound | effect on KCNQ2-R213A/KCNQ3 (in words) (KCNQ2-R213A/KCNQ3) | effect of R243A mutation on (E)-2-dodecenal action in KCNQ1/KCNE1 (KCNQ1-R243A/KCNE1) | effect of R243A mutation on (E)-2-dodecenal action in KCNQ1 (KCNQ1-R243A) | oral bioavailability [1] [%] | plasma concentration [1]
1 | CCCCCCCCC/C=C/C=O [(E)-2-dodecenal] | completely insensitive | reduced (E)-2-dodecenal efficacy twofold | slightly increased (E)-2-dodecenal efficacy |  | 
2 | CC(=O)c1c(O)c(C)c(O)c(Cc2c(O)c3c(c(C(=O)/C=C/c4ccccc4)c2O)OC(C)(C)C=C3)c1O [MTX, mallotoxin] |  |  |  | > 20 | exceeded 2 μg/ml
